Entries after “also recorded” stand apart in the source; their conditions may differ. Read-outs that look alike come from different tables or passages of the source.
Key:
human CAR (hCAR) [1] = target: T1, human CAR (hCAR) (Homo sapiens, UniProt Q14994)
T1 sequence (Q14994 1-348 isoform Q14994-2): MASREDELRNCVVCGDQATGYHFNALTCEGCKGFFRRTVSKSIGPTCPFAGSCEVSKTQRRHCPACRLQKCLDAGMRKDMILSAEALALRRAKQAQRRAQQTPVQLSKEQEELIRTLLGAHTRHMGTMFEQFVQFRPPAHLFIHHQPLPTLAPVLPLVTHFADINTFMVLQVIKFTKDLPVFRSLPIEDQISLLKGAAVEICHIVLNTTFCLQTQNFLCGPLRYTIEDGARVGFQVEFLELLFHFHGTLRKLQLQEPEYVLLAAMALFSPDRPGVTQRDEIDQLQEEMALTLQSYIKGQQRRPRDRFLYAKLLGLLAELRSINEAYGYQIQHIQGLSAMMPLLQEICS
Protocol: (§2) The pEF6/V5-hCAR expression plasmid and the pGL4.17[luc2/Neo]-CYP2B6-2.2kb construct containing both the PBREM and XREM[40], were co-transfected in HepG2 cells using lipofectamine 2000 reagents (Life Technologies) following the manufacturer’s instruction. Dulbecco’s Modified Eagle Medium (DMEM) containing 10% FBS, 100 U/ml penicillin, 100 μg/ml streptomycin, G418 (0.6-1 mg/ml) and blasticidin (10 μg/ml) were used for the selection of colonies containing a mixed population of drug resistant cells. Subsequently, these cells were transferred to collagen-coated 48-well plates and continually cultured in the same media. Single colony containing both plasmids was selected and functionally verified.
(§3) The generated stable cell line, namely HepG2-CYP2B6-hCAR, was used to identify hCAR modulators in a qHTS platform. Assays were run in both agonist and antagonist modes. In brief, HepG2-CYP2B6-hCAR cells were dispensed at 2,500 cells/well in 1,536-well plates (Greiner Bio-One North America, Monroe, NC) using a Multidrop Combi (Thermo Fisher Scientific Inc., Waltham, MA). […] The assays were incubated at 37 °C for 24 h followed by the addition of 4 μl of the ONE-Glo luciferase reagent (Promega, Madision, WI). The assay plates were incubated at room temperature for 20 min and luminescence intensity was quantified using a ViewLux plate reader (PerkinElmer, Shelton, CT).
(§4) Concentration-response titration points for each compound were then fitted to the Hill equation, yielding half-maximal inhibition (IC50) or activation (EC50) and maximal response (efficacy) values. Compounds from the primary qHTS screen were classified into four major curve classes according to quality of curve fit, potency and efficacy. Class 1.1, 1.2, 2.1, and 2.2 curves were high-quality and thus high-confidence concentration-response curves (CRCs). […] All other curve classes (including those curves with single point activity) were deemed inconclusive. […] Follow-up studies were performed using a new aliquot of samples to confirm sample integrity and assay reproducibility.
(§5) All of these compounds were retested in both HepG2-CYP2B6-hCAR and cell viability assays.

CYP2B6 = CYP2B6 mRNA expression in HPH (real-time PCR); details: for Induction of hCAR target genes / Effect on CYP2B6 mRNA expression: HPH; for Induction of hCAR target genes: target genes CYP2B6 and CYP3A4; for Effect on CYP2B6 mRNA expression: 24 h, vs vehicle control (0.1% DMSO)
Protocol: (§6) HPH were isolated from human liver specimens by a modification of the two-step collagenase digestion method as described previously[43] or obtained from Bioreclamation In Vitro Technologies (Baltimore, MD). Fresh HPH were seeded at 1.5 × 10^6, 7.5 × 10^5 or 4.7 × 10^4 cells/well in 6-well, 12-well, or 96-well collagen coated plates, respectively. Hepatocytes were cultured for 36 h at 37 °C before treatment with specified compounds for another 24 or 72 h for detection of mRNA or protein expression in the 6-well and 12-well plates.
(§7) Total RNA was isolated from treated hepatocytes using the TRIzol® reagent and reverse transcribed using a High Capacity cDNA Archive Kit (Applied Biosystems, Foster City, CA) following the manufacturers’ instructions. CYP2B6 and CYP3A4 mRNA expression were normalized against that of GAPDH. Real-time PCR assays were performed in 96-well optical plates on an ABI Prism 7000 Sequence Detection System with SYBR Green PCR Master Mix. […] Induction values were calculated using the equation: Fold = 2ΔΔCt, where ΔCt represents the differences in cycle threshold numbers between CYP2B6 or CYP3A4 and GAPDH, and ΔΔCt represents the relative change in these differences between control and treatment groups.

CAR, CYP2B6, or CYP3A4 = details: previously known; reference not given; cited from earlier work
human CAR (hCAR) [2] = target: T1, human CAR (hCAR); experiment: hCAR luciferase reporter qHTS, agonist mode (HepG2-CYP2B6-hCAR cells, PK11195 co-treatment); details: agonist mode; for Follow-up Confirmation Efficacy: relative to CITCO (100%); for Primary Screen Efficacy: relative to CITCO Emax (100%)
Protocol: (§8) The generated stable cell line, namely HepG2-CYP2B6-hCAR, was used to identify hCAR modulators in a qHTS platform. Assays were run in both agonist and antagonist modes. In brief, HepG2-CYP2B6-hCAR cells were dispensed at 2,500 cells/well in 1,536-well plates (Greiner Bio-One North America, Monroe, NC) using a Multidrop Combi (Thermo Fisher Scientific Inc., Waltham, MA). […] Each NPC compound was tested at 8 concentrations ranging from 0.6 nM to 38.3 μM. The assays were incubated at 37 °C for 24 h followed by the addition of 4 μl of the ONE-Glo luciferase reagent (Promega, Madision, WI). The assay plates were incubated at room temperature for 20 min and luminescence intensity was quantified using a ViewLux plate reader (PerkinElmer, Shelton, CT).
as §4
(§9) These compounds were prepared in 1536-well compound plates at 11-point 3-fold dilution titrations in DMSO, with final concentrations ranging from 0.6 nM to 38.3 μM. All of these compounds were retested in both HepG2-CYP2B6-hCAR and cell viability assays.

EYFP-hCAR = target: T2, EYFP-hCAR (Homo sapiens, UniProt Q14994); experiment: Nuclear translocation of Ad/EYFP-hCAR in human primary hepatocytes; format: cell-based; details: HPH
T2 construct: expressed in transfected cells; host or cells: human primary hepatocytes infected with Ad/EYFP-hCAR
T2 sequence (Q14994 1-348 isoform Q14994-2): T1 sequence (Q14994 1-348 isoform Q14994-2)
Protocol: A recombinant adenovirus expressing enhanced yellow fluorescent protein-tagged hCAR (Ad/EYFP-hCAR) was generated as described previously. Hepatocytes cultured in 96-well collagen-coated plates in serum free Williams’ E medium were infected with Ad/EFYP-hCAR (1 μl/well) for 12 h before treatment with the vehicle control, DMSO (0.1%), PB (1 mM), and selected compounds for another 8 h. Subcellular localization of hCAR was visualized using a Nikon (Tokyo, Japan) C1-LU3 instrument based on an inverted Nikon Eclipse TE2000 microscope.

HepG2-CYP2B6-hCAR cells = experiment: Cell viability assay (CellTiter-Glo ATP quantitation); format: cell-based, human; design: key to Cytotoxicity (activity call): Inactive: considered inactive if efficacy is less than 30%; details: 24 h
Protocol: (§1) The potential cytotoxicity of the NPC compounds in HepG2-CYP2B6-hCAR cells was measured using a luciferase-coupled ATP quantitation assay (CellTiter-Glo viability assay, Promega). The change of intracellular ATP content indicates the number of metabolically competent cells. The cells were seeded at 2,500 cells/5 μl in 1536-well plates and were exposed to each test compound at concentrations and treatment duration as previously mentioned. The assay plates were incubated for 24 h at 37 °C, followed by the addition of 4 μl/well of CellTiter-Glo reagent. After 30 min incubation at RT, the luminescence intensity of the plates was measured using a ViewLux plate reader.

human CAR (hCAR) [3] = target: T1, human CAR (hCAR); experiment: hCAR luciferase reporter qHTS, antagonist mode (HepG2-CYP2B6-hCAR cells, CITCO co-treatment); details: antagonist mode;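 further: stable HepG2 line carrying hCAR plus a CYP2B6 promoter (PBREM/XREM) luciferase reporter, 1536-well format, 24 h compound exposure at 37 °C, then luminescence read with ONE-Glo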
Protocol: as §2, §3, §4, §5

hPXR = target: T3, hPXR (Homo sapiens, UniProt O75469); experiment: Transient hPXR luciferase assay in HepG2 cells (CYP2B6-2.2 kb reporter); format: cell-based
T3 construct: expressed in transfected cells; host or cells: HepG2 (transient transfection)
T3 sequence (O75469 1-434): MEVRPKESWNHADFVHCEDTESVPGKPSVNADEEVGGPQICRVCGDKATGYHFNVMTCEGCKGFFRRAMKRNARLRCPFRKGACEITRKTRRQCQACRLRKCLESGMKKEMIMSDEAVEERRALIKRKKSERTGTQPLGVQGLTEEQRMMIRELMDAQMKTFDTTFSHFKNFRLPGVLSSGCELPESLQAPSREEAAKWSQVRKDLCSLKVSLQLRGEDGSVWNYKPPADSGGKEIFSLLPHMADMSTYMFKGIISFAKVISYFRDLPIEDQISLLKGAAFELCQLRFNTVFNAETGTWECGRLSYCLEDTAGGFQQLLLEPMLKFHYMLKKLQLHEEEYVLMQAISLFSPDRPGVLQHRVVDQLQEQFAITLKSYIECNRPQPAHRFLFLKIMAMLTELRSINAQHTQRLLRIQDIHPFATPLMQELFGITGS
Protocol: HepG2 cells cultured in a 24-well plate were co-transfected with the CYP2B6-2.2 kb reporter and hPXR expression vectors using a Lipofectamine® 2000 Transfection Kit (Life Technologies) following the manufacturer’s instruction. […] Cell lysates were assayed for firefly luciferase activities normalized against the activities of co-transfected Renilla luciferase using a Dual-Luciferase Kit (Promega). Data were represented as mean±SD of three individual transfections.

[4] = system: CYP2B6 and CYP3A4 proteins; experiment: Immunoblotting of CYP2B6 and CYP3A4 proteins in HPH; format: cell-based, human; details: immunoblotting (Fig. 3C)
Protocol: Homogenate proteins (30 μg) from treated HPH were resolved on an SDS polyacrylamide gel and electrophoretically transferred onto Immobilon-P polyvinylidene difluoride membranes and blocked using 5% blotting-grade blocker (nonfat dry milk, Bio-RAD). Subsequently, membranes were incubated with specific antibodies against CYP2B6 (1:200), CYP3A4 (1:5000), and β-actin (1:50,000) diluted in 1% blotting-grade blocker. β-Actin was used to normalize protein loadings. Membranes were washed using 1x Tris buffered saline–Tween 20 (Bio-RAD) and incubated with horseradish peroxidase goat anti-rabbit IgG antibody diluted at 1:5000, and developed using ECL Western blotting detection reagent (Thermo-Scientific Inc).

CYP3A4 = CYP3A4 mRNA expression in HPH (real-time PCR); format: cell-based, human; details: for Effect on CYP3A4 mRNA expression: HPH, 24 h, vs vehicle control (0.1% DMSO)
Protocol: as §6, §7

[5] = system: human primary hepatocytes; experiment: MTT cytotoxicity assay in HPH; format: cell-based; details: 1 μM, 24 hours, donor HL-104
Protocol: Figure S1. […] Human primary
was carried out following the manufacturer’s instruction. Data represent the mean ± SD (n =3).
(1 picture or pasted object on this page, not shown here)

[6] = Cell viability assay (CellTiter-Glo ATP quantitation); format: cell-based, human; design: key to Cytotoxicity (activity call): Inactive: considered inactive if efficacy is less than 30%; details: human, HepG2-CYP2B6-hCAR cells, read-out: Cytotoxicity Potency
Protocol: as §1

human CAR (hCAR) [7] = target: T1, human CAR (hCAR); remark: listed apart in the source
Protocol: as §8, §4, §9

[8] = Follow-up Confirmation Potency (EC50), follow-up cherry-pick, 11-point titration
[9] = Primary Screen Potency (EC50), primary qHTS, 2.5 μM PK11195, 24 h
[10] = Follow-up Confirmation Potency (IC50), follow-up cherry-pick, 11-point titration
[11] = Primary Screen Potency (IC50), primary qHTS, 0.1 μM CITCO, 24 h
[12] = HPH donor HL-104, 24 h, daunorubicin 1, 2.5 and 5 µM, bortezomib 0.1, 0.5, and 1 µM

Compound: CCCCc1ccc(O)cc1 [4-butylphenol]
- Identified as hCAR antagonist/deactivator in the qHTS (human CAR (hCAR) [1]): recognized in the current study

Compound: NNCCc1ccccc1 [Phenelzine]
- Induction of hCAR target genes (CYP2B6): negligible induction
- Induction of hCAR target genes (CYP2B6; listed as phenelzine): nor induced the expression of its target genes
- Known modulator of CAR, CYP2B6, or CYP3A4? (CAR, CYP2B6, or CYP3A4): CYP3A4 weak inhibitor
- EC50 (human CAR (hCAR) [2]; [8]): 15.9 µM
- EC50 (human CAR (hCAR) [2]; [9]): 15.1 µM
- Follow-up Confirmation Efficacy (human CAR (hCAR) [2]; follow-up cherry-pick): 70%
- Primary Screen Efficacy (human CAR (hCAR) [2]; primary qHTS): 145%
- hCAR nuclear translocation (in words) (EYFP-hCAR): didn’t translocate hCAR
- hCAR nuclear translocation (in words) (EYFP-hCAR; listed as phenelzine): neither translocated hCAR

Compound: C[C@@H]1O[C@@H](O[C@H]2C[C@@H](O)[C@]3(CO)[C@H]4[C@H](O)C[C@]5(C)[C@@H](C6=CC(=O)OC6)CC[C@]5(O)[C@@H]4CC[C@]3(O)C2)[C@H](O)[C@H](O)[C@H]1O [Ouabain]
- Follow-up Confirmation Efficacy (human CAR (hCAR) [1]): 0.47 (-99%)
- Primary Screen Efficacy (human CAR (hCAR) [1]): 0.30 (-104%)
- Cytotoxicity (activity call) (HepG2-CYP2B6-hCAR cells): Inactive
- IC50 (human CAR (hCAR) [3]; [10]): 0.47 µM
- IC50 (human CAR (hCAR) [3]; [11]): 0.3 µM

Compound: O=c1cc(-c2ccccc2)oc2ccccc12 [Flavone]
- Effect on CYP2B6 mRNA expression (CYP2B6): significantly induced; also recorded: markedly induced
- hPXR activation (hPXR; data not shown): moderately activated hPXR
- Induction of CYP2B6 and CYP3A4 at the protein level [4]: preferential induction of CYP2B6 over CYP3A4
- Known modulator of CAR, CYP2B6, or CYP3A4? (CAR, CYP2B6, or CYP3A4): Dietary flavonoids activate CAR
- EC50 (human CAR (hCAR) [2]; [8]): 32.4 µM
- EC50 (human CAR (hCAR) [2]; [9]): 34 µM
- Follow-up Confirmation Efficacy (human CAR (hCAR) [2]; follow-up cherry-pick): 200%
- Primary Screen Efficacy (human CAR (hCAR) [2]; primary qHTS): 184%
- Effect on CYP3A4 mRNA expression (CYP3A4): marginal effect; also recorded: only marginally increased

Compound: CC(C)C[C@H](NC(=O)[C@H](Cc1ccccc1)NC(=O)c1cnccn1)B(O)O [Bortezomib]
- Concentration-dependent effect on CYP2B6 mRNA expression (CYP2B6; [12]): marked and concentration-dependent repression
- Effect on CYP2B6 mRNA expression (CYP2B6): most potent repressors of CYP2B6
- Cytotoxicity in HPH (MTT) [5]: not associated with significant cytotoxicity
- Cytotoxicity Efficacy (HepG2-CYP2B6-hCAR cells): -57%
- IC50 at 24 h [6]: 1.25 µM
- Concentration-dependent effect on CYP3A4 mRNA expression (CYP3A4; [12]): marked and concentration-dependent repression
- IC50 (human CAR (hCAR) [3]; [10]): 0.03 µM
- IC50 (human CAR (hCAR) [3]; [11]): 0.02 µM
- Primary Screen Efficacy (human CAR (hCAR) [3]; primary qHTS, relative to PK11195 (100%)): -103%

Compound: COc1cccc2c1C(=O)c1c(O)c3c(c(O)c1C2=O)C[C@@](O)(C(C)=O)C[C@@H]3O[C@H]1C[C@H](N)[C@H](O)[C@H](C)O1 [Daunorubicin]
- Effect on CYP2B6 mRNA expression (CYP2B6): most potent repressors of CYP2B6
- Effect on basal and RIF-induced PXR activity (hPXR; HepG2, 24 h, in the presence or absence of rifampicin (10 μM)): only repressed RIF-induced PXR activity
- Cytotoxicity Efficacy (HepG2-CYP2B6-hCAR cells): -43%
- IC50 at 24 h [6]: 15.9 µM

Compound: CC(C)=CCOc1c2occc2cc2ccc(=O)oc12 [Imperatorin]
- Follow-up Confirmation Efficacy (human CAR (hCAR) [7]): 238%
- Primary Screen Efficacy (human CAR (hCAR) [7]): 146%
- hPXR activation (hPXR): moderately activated hPXR
- Induction of CYP2B6 and CYP3A4 at the protein level [4]: preferential induction of CYP2B6 over CYP3A4
- Known modulator of CAR, CYP2B6, or CYP3A4? (CAR, CYP2B6, or CYP3A4): Cyp2b10 inducer
- EC50 (human CAR (hCAR) [2]; [8]): 14 µM
- EC50 (human CAR (hCAR) [2]; [9]): 10.7 µM
- Effect on CYP3A4 mRNA expression (CYP3A4): marginal effect; also recorded: only marginally increased

— PMC4438668, “Quantitative High-Throughput Identification of Drugs as Modulators of Human Constitutive Androstane Receptor” (Scientific Reports, 2015)
